Data as given in patent publication US11685729B2, “C5a receptor modulators” (IDORSIA PHARMACEUTICALS LTD., priority 2018, dated 2023).

These compounds were tested against C5AR1 (Homo sapiens (Human), UniProt P21730) (assay: In vitro assay: PathHunter beta-arrestin antagonist assay in CHO-K1 C5AR1 beta-arrestin cell line, stimulated with C5a agonist). Conditions: read-out: C5aR IC50; CHO-K1 C5AR1 beta-arrestin cell line; 1-10 nM C5a agonist; geometric mean values.
Chain of C5AR1 (P21730 whole entry): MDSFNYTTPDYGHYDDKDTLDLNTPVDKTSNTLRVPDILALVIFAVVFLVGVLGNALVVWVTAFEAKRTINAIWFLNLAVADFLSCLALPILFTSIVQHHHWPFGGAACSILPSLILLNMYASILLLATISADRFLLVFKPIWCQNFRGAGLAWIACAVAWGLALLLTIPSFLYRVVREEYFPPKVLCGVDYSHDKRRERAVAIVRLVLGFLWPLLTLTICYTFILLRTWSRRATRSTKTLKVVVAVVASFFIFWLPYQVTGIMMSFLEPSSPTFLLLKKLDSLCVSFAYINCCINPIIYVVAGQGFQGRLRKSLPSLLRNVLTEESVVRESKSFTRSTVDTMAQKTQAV
Experimental: 5 μl Antagonist at 6-fold end concentration or DMSO control is added to assay medium and subsequently 5 μl 1-10 nM C5a agonist at 6 fold end concentration. Cells are centrifuged for 1 min at 1000 rpm and incubated for 1.5 hour in at 37° C. Plates are equilibrated at room temperature for several minutes before adding 12 μI/well Detection Reagent (PathHunter Detection Kit, DiscoverX, Cat #93-0001). Plates are centrifuged for 1 min at 1000 rpm and incubated for 45 minutes at RT before being measured on a Fluostar Optima, BMG Labtech. IC50 values are calculated from a serial dilution range of antagonist using inhouse software and given in nmol/l.
The calculated IC50 values may fluctuate depending on the daily cellular assay performance. […] Average IC50 values from several measurements are given as geometric mean values.
In the case of `COc1nccnc1CN1C(=O)N(C2CCN(c3c(F)cccc3C#N)CC2)Cc2ccccc21` [Example 39, 3-Fluoro-2-{4-[1-(3-methoxy-pyrazin-2-ylmethyl)-2-oxo-1,4-dihydro-2H-quinazolin-3-yl]-piperidin-1-yl}-benzonitrile], the IC50 is reported as 1.05 µM.
Compound `COc1ccccc1C(C)N1C(=O)N(C2CCN(c3c(C)cccc3F)CC2)Cc2ccccc21` (stereo not drawn) [Example 40, 3-[1-(2-Fluoro-6-methyl-phenyl)-piperidin-4-yl]-1-[1-(2-methoxy-phenyl)-ethyl]-3,4-dihydro-1H-quinazolin-2-one] has an IC50 of 0.135 µM.
`Cc1cccc(F)c1N1CCC(N2Cc3ccnnc3N(Cc3ccccc3C(F)(F)F)C2=O)CC1` [Example 41, 6-[1-(2-Fluoro-6-methyl-phenyl)-piperidin-4-yl]-8-(2-trifluoromethyl-benzyl)-5,8-dihydro-6H-pyrimido[4,5-c]pyridazin-7-one] was tested, and the IC50 was 0.109 µM.
With `Cc1cccc(F)c1N1CCC(N2Cc3ccccc3N(Cc3nccnc3C(F)(F)F)C2=O)CC1` [Example 42, 3-[1-(2-Fluoro-6-methyl-phenyl)-piperidin-4-yl]-1-(3-trifluoromethyl-pyrazin-2-ylmethyl)-3,4-dihydro-1H-quinazolin-2-one] the IC50 was 0.063 µM.
With `COc1nccnc1CN1C(=O)N(C2CCN(c3c(C)cccc3F)CC2)Cc2ccccc21` [Example 43, 3-[1-(2-Fluoro-6-methyl-phenyl)-piperidin-4-yl]-1-(3-methoxy-pyrazin-2-ylmethyl)-3,4-dihydro-1H-quinazolin-2-one] the IC50 was 0.299 µM.
Compound `Cc1cccc(F)c1N1CCC(N2Cc3ccccc3N(Cc3ccccc3OC(C)C)C2=O)CC1` [Example 44, 3-[1-(2-Fluoro-6-methyl-phenyl)-piperidin-4-yl]-1-(2-isopropoxy-benzyl)-3,4-dihydro-1H-quinazolin-2-one] has an IC50 of 0.033 µM.
`Cc1cccc(F)c1N1CCC(N2Cc3ccccc3N(C(C)c3ccccc3C(F)(F)F)C2=O)CC1` (stereo not drawn) [Example 45, 3-[1-(2-Fluoro-6-methyl-phenyl)-piperidin-4-yl]-1-[1-(2-trifluoromethyl-phenyl)-ethyl]-3,4-dihydro-1H-quinazolin-2-one] was tested, and the IC50 was 0.191 µM.
In the case of `CCOc1ccccc1CN1C(=O)N(C2CCN(c3c(C)cccc3F)CC2)Cc2ccccc21` [Example 46, 1-(2-Ethoxy-benzyl)-3-[1-(2-fluoro-6-methyl-phenyl)-piperidin-4-yl]-3,4-dihydro-1H-quinazolin-2-one], the IC50 is reported as 0.035 µM.
With `Cc1cccc(F)c1N1CCC(N2Cc3ccccc3N(Cc3ccccc3OCCN(C)C)C2=O)CC1` [Example 47, 1-[2-(2-Dimethylamino-ethoxy)-benzyl]-3-[1-(2-fluoro-6-methyl-phenyl)-piperidin-4-yl]-3,4-dihydro-1H-quinazolin-2-one] the IC50 was 1.66 µM.
`CC(=O)OCCOc1ccccc1CN1C(=O)N(C2CCN(c3c(C)cccc3F)CC2)Cc2ccccc21` [Example 48, Acetic acid 2-(2-{3-[1-(2-fluoro-6-methyl-phenyl)-piperidin-4-yl]-2-oxo-3,4-dihydro-2H-quinazolin-1-ylmethyl}-phenoxy)-ethyl ester] showed an IC50 of 0.298 µM.
In the case of `COC(=O)C(c1ccccc1OC)N1C(=O)N(C2CCN(c3c(C)cccc3F)CC2)Cc2ccccc21` (stereo not drawn) [Example 49, {3-[1-(2-Fluoro-6-methyl-phenyl)-piperidin-4-yl]-2-oxo-3,4-dihydro-2H-quinazolin-1-yl}-(2-methoxy-phenyl)-acetic acid methyl ester], the IC50 is reported as 0.102 µM.
In the case of `Cc1cccc(F)c1N1CCC(N2Cc3ccccc3N(Cc3ccccc3OCCO)C2=O)CC1` [Example 50, 3-[1-(2-Fluoro-6-methyl-phenyl)-piperidin-4-yl]-1-[2-(2-hydroxy-ethoxy)-benzyl]-3,4-dihydro-1H-quinazolin-2-one], the IC50 is reported as 2.56 µM.
`Cc1cccc(F)c1N1CCC(N2Cc3ccccc3N(Cc3ccccc3OC3COC3)C2=O)CC1` [Example 51, 3-[1-(2-Fluoro-6-methyl-phenyl)-piperidin-4-yl]-1-[2-(oxetan-3-yloxy)-benzyl]-3,4-dihydro-1H-quinazolin-2-one] was tested, and the IC50 was 0.113 µM.
Compound `Cc1cccc(F)c1N1CCC(N2Cc3ccccc3N(Cc3ccccc3OC3CCC3)C2=O)CC1` [Example 52, 1-(2-Cyclobutoxy-benzyl)-3-[1-(2-fluoro-6-methyl-phenyl)-piperidin-4-yl]-3,4-dihydro-1H-quinazolin-2-one] has an IC50 of 0.069 µM.
Work on `Cc1cccc(F)c1N1CCC(N2Cc3ccccc3N(Cc3ccccc3OC3CCOCC3)C2=O)CC1` [Example 53, 3-[1-(2-Fluoro-6-methyl-phenyl)-piperidin-4-yl]-1-[2-(tetrahydro-pyran-4-yloxy)-benzyl]-3,4-dihydro-1H-quinazolin-2-one] yielded an IC50 of 0.032 µM.
Compound `Cc1cccc(F)c1N1CCC(N2Cc3ccccc3N(Cc3ccccc3OCC3CC3)C2=O)CC1` [Example 54, 1-(2-Cyclopropylmethoxy-benzyl)-3-[1-(2-fluoro-6-methyl-phenyl)-piperidin-4-yl]-3,4-dihydro-1H-quinazolin-2-one] has an IC50 of 0.066 µM.
`Cc1cccc(F)c1N1CCC(N2Cc3ccccc3N(Cc3ccccc3OCC#N)C2=O)CC1` [Example 55, (2-{3-[1-(2-Fluoro-6-methyl-phenyl)-piperidin-4-yl]-2-oxo-3,4-dihydro-2H-quinazolin-1-ylmethyl}-phenoxy)-acetonitrile] gave an IC50 of 0.512 µM.
`Cc1cccc(F)c1N1CCC(N2Cc3ccccc3N(Cc3ccccc3C3CC3)C2=O)CC1` [Example 56, 1-(2-Cyclopropyl-benzyl)-3-[1-(2-fluoro-6-methyl-phenyl)-piperidin-4-yl]-3,4-dihydro-1H-quinazolin-2-one] gave an IC50 of 0.028 µM.
`Cc1cccc(F)c1N1CCC(N2Cc3ccccc3N(Cc3ccccc3C(C)C)C2=O)CC1` [Example 57, 3-[1-(2-Fluoro-6-methyl-phenyl)-piperidin-4-yl]-1-(2-isopropyl-benzyl)-3,4-dihydro-1H-quinazolin-2-one] gave an IC50 of 0.024 µM.
Work on `Cc1cccc(F)c1N1CCC(N2Cc3nccnc3N(Cc3ccccc3C(F)(F)F)C2=O)CC1` [Example 58, 3-[1-(2-Fluoro-6-methyl-phenyl)-piperidin-4-yl]-1-(2-trifluoromethyl-benzyl)-3,4-dihydro-1H-pteridin-2-one] yielded an IC50 of 0.021 µM.
`Cc1cccc(F)c1N1CCC(N2Cc3ccccc3N(Cc3nccnc3OC(C)C)C2=O)CC1` [Example 59, 3-[1-(2-Fluoro-6-methyl-phenyl)-piperidin-4-yl]-1-(3-isopropoxy-pyrazin-2-ylmethyl)-3,4-dihydro-1H-quinazolin-2-one] gave an IC50 of 0.038 µM.
In the case of `Cc1cccc(F)c1N1CCC(N2Cc3ccccc3N(Cc3ncccc3OC(C)C)C2=O)CC1` [Example 60, 3-[1-(2-Fluoro-6-methyl-phenyl)-piperidin-4-yl]-1-(3-isopropoxy-pyridin-2-ylmethyl)-3,4-dihydro-1H-quinazolin-2-one], the IC50 is reported as 0.028 µM.
`Cc1cccc(F)c1N1CCC(N2Cc3ccccc3N(Cc3cnccc3C(C)C)C2=O)CC1` [Example 61, 3-[1-(2-Fluoro-6-methyl-phenyl)-piperidin-4-yl]-1-(4-isopropyl-pyridin-3-ylmethyl)-3,4-dihydro-1H-quinazolin-2-one] showed an IC50 of 0.036 µM.
For `Cc1cccc(F)c1N1CCC(N2Cc3ccccc3N(Cc3nccnc3C(C)C)C2=O)CC1` [Example 62, 3-[1-(2-Fluoro-6-methyl-phenyl)-piperidin-4-yl]-1-(3-isopropyl-pyrazin-2-ylmethyl)-3,4-dihydro-1H-quinazolin-2-one], the IC50 was 0.038 µM.
`Cc1cccc(F)c1N1CCC(N2Cc3ccccc3N(Cc3cncnc3C(C)C)C2=O)CC1` [Example 63, 3-[1-(2-Fluoro-6-methyl-phenyl)-piperidin-4-yl]-1-(4-isopropyl-pyrimidin-5-ylmethyl)-3,4-dihydro-1H-quinazolin-2-one] gave an IC50 of 0.061 µM.
`Cc1cccc(F)c1N1CCC(N2Cc3cncnc3N(Cc3ccccc3C(F)(F)F)C2=O)CC1` [Example 64, 3-[1-(2-Fluoro-6-methyl-phenyl)-piperidin-4-yl]-1-(2-trifluoromethyl-benzyl)-3,4-dihydro-1H-pyrimido[4,5-d]pyrimidin-2-one] was tested, and the IC50 was 0.782 µM.
Work on `Cc1cccc(F)c1N1CCC(N2Cc3ccccc3N(Cc3cccnc3C(F)(F)F)C2=O)CC1` [Example 65, 3-[1-(2-Fluoro-6-methyl-phenyl)-piperidin-4-yl]-1-(2-trifluoromethyl-pyridin-3-ylmethyl)-3,4-dihydro-1H-quinazolin-2-one] yielded an IC50 of 0.067 µM.
For `Cc1cccc(F)c1N1CCC(N2Cc3nnccc3N(Cc3ccccc3C(F)(F)F)C2=O)CC1` [Example 66, 7-[1-(2-Fluoro-6-methyl-phenyl)-piperidin-4-yl]-5-(2-trifluoromethyl-benzyl)-7,8-dihydro-5H-pyrimido[5,4-c]pyridazin-6-one], the IC50 was 1.92 µM.
Compound `Cc1cccc(F)c1N1CCC(N2Cc3ccccc3N(Cc3cnccc3C(F)(F)F)C2=O)CC1` [Example 67, 3-[1-(2-Fluoro-6-methyl-phenyl)-piperidin-4-yl]-1-(4-trifluoromethyl-pyridin-3-ylmethyl)-3,4-dihydro-1H-quinazolin-2-one] has an IC50 of 0.046 µM.
Work on `Cc1cccc(F)c1N1CCC(N2Cc3ccccc3N(Cc3ccccc3OC3CC3)C2=O)CC1` [Example 68, 1-(2-Cyclopropoxy-benzyl)-3-[1-(2-fluoro-6-methyl-phenyl)-piperidin-4-yl]-3,4-dihydro-1H-quinazolin-2-one] yielded an IC50 of 0.066 µM.
`Cc1cccc(F)c1N1CCC(N2Cc3ccccc3N(Cc3ncccc3C(F)(F)F)C2=O)CC1` [Example 69, 3-[1-(2-Fluoro-6-methyl-phenyl)-piperidin-4-yl]-1-(3-trifluoromethyl-pyridin-2-ylmethyl)-3,4-dihydro-1H-quinazolin-2-one] showed an IC50 of 0.013 µM.
`Cc1nn(C)c(N2CCC(N3Cc4ccccc4N(Cc4ccccc4C(F)(F)F)C3=O)CC2)c1C#N` [Example 72, 1,3-Dimethyl-5-{4-[2-oxo-1-(2-trifluoromethyl-benzyl)-1,4-dihydro-2H-quinazolin-3-yl]-piperidin-1-yl}-1H-pyrazole-4-carbonitrile] was tested, and the IC50 was 2.66 µM.
`Cc1nn(C)c(N2CCC(N3Cc4ccccc4N(Cc4ccccc4C(F)(F)F)C3=O)CC2)c1Cl` [Example 73, 3-[1-(4-Chloro-2,5-dimethyl-2H-pyrazol-3-yl)-piperidin-4-yl]-1-(2-trifluoromethyl-benzyl)-3,4-dihydro-1H-quinazolin-2-one] gave an IC50 of 1.33 µM.
